# In patent US20250179061A1 (SIRONAX LTD., priority 2022, published 2025):
# Tested on: HT-29 cells
# Test: HT-29 necroptosis cell viability assay (TNF-α/SMAC mimetic/zVAD-FMK, CellTiter-Glo)
# Assay type: cell-based
# Details: Homo sapiens, HT-29, HT-29 necroptosis cell viability assay; class symbols for IC50; read-out: Activity
# How it was run: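 Necroptosis was triggered by TNF-α (10 ng/ml), SMAC mimetic (6 μM) and zVAD-FMK (10 μM) in serum-free medium during 20 h compound exposure (10 concentrations, threefold steps) of HT-29 cells. IC50 from duplicate dose-responses uses CellTiter-Glo ATP luminescence as viability read-out.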
row,SMILES,IC50 [µM]
1,"Cc1nc(C#N)sc1Oc1ccc(-n2ncn(Cc3c(F)cccc3C#N)c2=O)cc1F [Example 571, 5-(4-(4-(2-cyano-6-fluorobenzyl)-5-oxo-4,5-dihydro-1H-1,2,4-triazol-1-yl)-2-fluorophenoxy)-4-methylthiazole-2-carbonitrile]",< 0.1
2,"Cc1nc(C#N)sc1Oc1ccc(-n2ncn(Cc3cc(F)ccc3F)c2=O)cc1F [Example 572, 5-(4-(4-(2,5-difluorobenzyl)-5-oxo-4,5-dihydro-1H-1,2,4-triazol-1-yl)-2-fluorophenoxy)-4-methylthiazole-2-carbonitrile]",< 0.1
3,"Cc1nc(Br)sc1Oc1ccc(-n2ncn(Cc3cc(Cl)ccn3)c2=O)cc1F [Example 573, 2-(4-((2-bromo-4-methylthiazol-5-yl)oxy)-3-fluorophenyl)-4-((4-chloropyridin-2-yl)methyl)-2,4-dihydro-3H-1,2,4-triazol-3-one]",0.1 to 1
4,"Cc1nc(C#N)sc1Oc1ccc(-n2ncn(Cc3cc(Cl)ccn3)c2=O)cc1F [Example 574, 5-(4-(4-((4-chloropyridin-2-yl)methyl)-5-oxo-4,5-dihydro-1H-1,2,4-triazol-1-yl)-2-fluorophenoxy)-4-methylthiazole-2-carbonitrile]",0.1 to 1
5,"COC(=O)c1nc(C)c(Oc2ccc(-n3ncn(Cc4cc(Cl)ccn4)c3=O)cc2F)s1 [Example 575, methyl 5-(4-(4-((4-chloropyridin-2-yl)methyl)-5-oxo-4,5-dihydro-1H-1,2,4-triazol-1-yl)-2-fluorophenoxy)-4-methylthiazole-2-carboxylate]",1 to 10
6,"Cc1nc(C#N)sc1Oc1ccc(-n2ncn(Cc3ncccc3Cl)c2=O)cc1F [Example 576, 5-(4-(4-((3-chloropyridin-2-yl)methyl)-5-oxo-4,5-dihydro-1H-1,2,4-triazol-1-yl)-2-fluorophenoxy)-4-methylthiazole-2-carbonitrile]",< 0.1
7,"CCC(O)(CC)c1nc(C)c(Oc2ccc(-n3ncn(Cc4c(F)cccc4F)c3=O)cc2)s1 [Example 577, 4-(2,6-difluorobenzyl)-2-(4-((2-(3-hydroxypentan-3-yl)-4-methylthiazol-5-yl)oxy)phenyl)-2,4-dihydro-3H-1,2,4-triazol-3-one]",< 0.1
8,"Cc1csc(Cn2cnn(-c3ccc(Oc4sc(C(C)(C)O)nc4C)c(F)c3)c2=O)n1 [Example 578, 2-(3-fluoro-4-((2-(2-hydroxypropan-2-yl)-4-methylthiazol-5-yl)oxy)phenyl)-4-((4-methylthiazol-2-yl)methyl)-2,4-dihydro-3H-1,2,4-triazole-3-one]",0.1 to 1
9,"Cc1nc(C(C)(C)O)sc1Oc1ccc(-n2ncn(Cc3c(F)cccc3C#N)c2=O)cc1F [Example 579, 3-fluoro-2-((1-(3-fluoro-4-((2-(2-hydroxypropan-2-yl)-4-methylthiazol-5-yl)oxy)phenyl)-5-oxo-1,5-dihydro-4H-1,2,4-triazol-4-yl)methyl)benzonitrile]",< 0.1
10,"Cc1nc(C2(O)CC2)sc1Oc1ccc(-n2ncn(Cc3c(F)cccc3F)c2=O)cc1 [Example 580, 4-(2,6-difluorobenzyl)-2-(4-((2-(1-hydroxycyclopropyl)-4-methylthiazol-5-yl)oxy)phenyl)-2,4-dihydro-3H-1,2,4-triazol-3-one]",< 0.1
11,"CCC(O)(CC)c1nc(C)c(Oc2ccc(-n3ncn(Cc4c(F)cccc4F)c3=O)cc2F)s1 [Example 581, 4-(2,6-difluorobenzyl)-2-(3-fluoro-4-((2-(3-hydroxypentan-3-yl)-4-methylthiazol-5-yl)oxy)phenyl)-2,4-dihydro-3H-1,2,4-triazol-3-one]",< 0.1
12,"Cc1nc(C2(O)CC2)sc1Oc1ccc(-n2ncn(Cc3c(F)cccc3F)c2=O)cc1F [Example 582, 4-(2,6-difluorobenzyl)-2-(3-fluoro-4-((2-(1-hydroxycyclopropyl)-4-methylthiazol-5-yl)oxy)phenyl)-2,4-dihydro-3H-1,2,4-triazol-3-one]",< 0.1
13,"Cc1nc(C(C)(C)O)sc1Oc1ccc(-n2ncn(Cc3c(F)cccc3F)c2=O)cc1Cl [Example 583, 2-(3-chloro-4-((2-(2-hydroxypropan-2-yl)-4-methylthiazol-5-yl)oxy)phenyl)-4-(2,6-difluorobenzyl)-2,4-dihydro-3H-1,2,4-triazol-3-one]",< 0.1
14,"Cc1nc(C(C)(C)O)sc1Oc1ccc(-n2ncn(Cc3ccccc3C#N)c2=O)cc1F [Example 584, 2-((1-(3-fluoro-4-((2-(2-hydroxypropan-2-yl)-4-methylthiazol-5-yl)oxy)phenyl)-5-oxo-1,5-dihydro-4H-1,2,4-triazol-4-yl)methyl)benzonitrile]",0.1 to 1
15,"Cc1nc(C2(O)COC2)sc1Oc1ccc(-n2ncn(Cc3c(F)cccc3F)c2=O)cc1F [Example 585, 4-(2,6-difluorobenzyl)-2-(3-fluoro-4-((2-(3-hydroxyoxetan-3-yl)-4-methylthiazol-5-yl)oxy)phenyl)-2,4-dihydro-3H-1,2,4-triazol-3-one]",< 0.1
16,"Cc1nc(C2(O)CCC2)sc1Oc1ccc(-n2ncn(Cc3c(F)cccc3F)c2=O)cc1F [Example 586, 4-(2,6-difluorobenzyl)-2-(3-fluoro-4-((2-(1-hydroxycyclobutyl)-4-methylthiazol-5-yl)oxy)phenyl)-2,4-dihydro-3H-1,2,4-triazol-3-one]",< 0.1
17,"Cc1nc(C(=O)N2C[C@H](N)[C@@H]2C)sc1Oc1ccc(-n2ncn(Cc3ccccc3F)c2=O)cc1F [Example 587, 2-(4-((2-((2S,3S)-3-amino-2-methylazetidine-1-carbonyl)-4-methylthiazol-5-yl)oxy)-3-fluorophenyl)-4-(2-fluorobenzyl)-2,4-dihydro-3H-1,2,4-triazol-3-one]",< 0.1
18,"Cc1nc(C(=O)N2C[C@H](O)[C@@H]2C)sc1Oc1ccc(-n2ncn(Cc3c(F)cccc3F)c2=O)cc1F [Example 588, 4-(2,6-difluorobenzyl)-2-(3-fluoro-4-((2-((2S,3S)-3-hydroxy-2-methylazetidine-1-carbonyl)-4-methylthiazol-yl)oxy)phenyl)-2,4-dihydro-3H-1,2,4-triazol-3-one]",< 0.1
19,"CNC(=O)c1nc(C)c(Oc2ccc(-n3ncn(Cc4ncccc4Cl)c3=O)cc2F)s1 [Example 589, 5-(4-(4-((3-chloropyridin-2-yl)methyl)-5-oxo-4,5-dihydro-1H-1,2,4-triazol-1-yl)-2-fluorophenoxy)-N,4-dimethylthiazole-2-carboxamide]",< 0.1
20,"Cc1nc(C(N)=O)sc1Oc1ccc(-n2ncn(Cc3ncccc3Cl)c2=O)cc1F [Example 590, 5-(4-(4-((3-chloropyridin-2-yl)methyl)-5-oxo-4,5-dihydro-1H-1,2,4-triazol-1-yl)-2-fluorophenoxy)-4-methylthiazole-2-carboxamide]",< 0.1
21,"Cc1nc(C(=O)N2CC(C)(N)C2)sc1Oc1ccc(-n2ncn(Cc3ccccc3F)c2=O)cc1F [Example 591, 2-(4-((2-(3-amino-3-methylazetidine-1-carbonyl)-4-methylthiazol-5-yl)oxy)-3-fluorophenyl)-4-(2-fluorobenzyl)-2,4-dihydro-3H-1,2,4-triazol-3-one]",< 0.1
22,"Cc1nc(C(=O)N2CC(C#N)C2)sc1Oc1ccc(-n2ncn(Cc3ccccc3F)c2=O)cc1F [Example 592, 1-(5-(2-fluoro-4-(4-(2-fluorobenzyl)-5-oxo-4,5-dihydro-1H-1,2,4-triazol-1-yl)phenoxy)-4-methylthiazole-2-carbonyl)azetidine-3-carbonitrile]",< 0.1
23,"Cc1nc(C(=O)N2CC(O)C2)sc1Oc1ccc(-n2ncn(Cc3ccccc3F)c2=O)cc1F [Example 593, 2-(3-fluoro-4-((2-(3-hydroxyazetidine-1-carbonyl)-4-methylthiazol-5-yl)oxy)phenyl)-4-(2-fluorobenzyl)-2,4-dihydro-3H-1,2,4-triazol-3-one]",< 0.1
24,"Cc1nc(C(=O)NO)sc1Oc1ccc(-n2ncn(Cc3ccccc3F)c2=O)cc1F [Example 594, 5-(2-fluoro-4-(4-(2-fluorobenzyl)-5-oxo-4,5-dihydro-1H-1,2,4-triazol-1-yl)phenoxy)-N-hydroxy-4-methylthiazole-2-carboxamide]",0.1 to 1
25,"CNC(=O)c1nc(C)c(Oc2ccc(-n3ncn(Cc4ccccc4F)c3=O)cc2F)s1 [Example 595, 5-(2-fluoro-4-(4-(2-fluorobenzyl)-5-oxo-4,5-dihydro-1H-1,2,4-triazol-1-yl)phenoxy)-N,4-dimethylthiazole-2-carboxamide]",< 0.1
26,"Cc1nc(C(=O)NN)sc1Oc1ccc(-n2ncn(Cc3ccccc3F)c2=O)cc1F [Example 596, 5-(2-fluoro-4-(4-(2-fluorobenzyl)-5-oxo-4,5-dihydro-1H-1,2,4-triazol-1-yl)phenoxy)-4-methylthiazole-2-carbohydrazide]",< 0.1
27,"Cc1nc(C(=O)N2CC(C)(O)C2)sc1Oc1ccc(-n2ncn(Cc3c(F)cccc3F)c2=O)cc1F [Example 597, 4-(2,6-difluorobenzyl)-2-(3-fluoro-4-((2-(3-hydroxy-3-methylazetidine-1-carbonyl)-4-methylthiazol-5-yl)oxy)phenyl)-2,4-dihydro-3H-1,2,4-triazol-3-one]",< 0.1
28,"Cc1nc(C(=O)N2CC(NC(=O)OC(C)(C)C)C2)sc1Oc1ccc(-n2ncn(Cc3ccccc3F)c2=O)cc1F [Example 598, tert-butyl (1-(5-(2-fluoro-4-(4-(2-fluorobenzyl)-5-oxo-4,5-dihydro-1H-1,2,4-triazol-1-yl)phenoxy)-4-methylthiazole-2-carbonyl)azetidin-3-yl)carbamate]",< 0.1
29,"CNC(=O)c1nc(C)c(Oc2ccc(-n3ncn(Cc4cnccc4Cl)c3=O)cc2F)s1 [Example 599, 5-(4-(4-((4-chloropyridin-3-yl)methyl)-5-oxo-4,5-dihydro-1H-1,2,4-triazol-1-yl)-2-fluorophenoxy)-N,4-dimethylthiazole-2-carboxamide]",< 0.1
30,"Cc1nc(C(=O)N2CC(N)C2)sc1Oc1ccc(-n2ncn(Cc3ccccc3F)c2=O)cc1F [Example 600, 2-(4-((2-(3-aminoazetidine-1-carbonyl)-4-methylthiazol-5-yl)oxy)-3-fluorophenyl)-4-(2-fluorobenzyl)-2,4-dihydro-3H-1,2,4-triazol-3-one]",< 0.1
